Measurements published in ChEMBL document CHEMBL1139161, “[d4U]-butyne-[HI-236] as a non-cleavable, bifunctional NRTI/NNRTI HIV-1 reverse-transcriptase inhibitor” (Bioorg Med Chem Lett, 2007).

Legend:
[1] = tested on: Human immunodeficiency virus 1; assay: Antiviral activity against HIV1 3B in MT2 cells assessed as inhibition of viral-mediated T-cell death by MTT method; format: functional, organism-based; conditions: Human immunodeficiency virus 1, 3B
[2] = Therapeutic index, ratio of IC50 for human MT2 cells to EC50 for HIV1 3B; format: cell-based; conditions: read-out: Ratio IC50/EC50
MT2 = assay: Cytotoxicity against human MT2 cells; format: cell-based

Row | SMILES | EC50 [1] | selectivity ratio [2] | IC50 (MT2)
1 | COc1ccc(OC)c(CCNC(=S)Nc2ccc(Br)cn2)c1 | 42 nM | > 24 | > 1000 nM
2 | C#CCCOc1ccc(OC)cc1CCNC(=S)Nc1ccc(Br)cn1 | 23 nM | > 44 | > 1000 nM
3 | COc1ccc(OCCC#Cc2cn(C3C=CC(CO)O3)c(=O)[nH]c2=O)c(CCNC(=S)Nc2ccc(Br)cn2)c1 (configuration not stated) | 250 nM | 68 | 17000 nM
4 | Cc1cn([C@H]2C=C[C@@H](CO)O2)c(=O)[nH]c1=O [STAVUDINE] | 2000 nM | > 50 | > 100000 nM
